Laboratory results as given in patent US8895746B2 (University of Central Florida Research Foundation, Inc., priority 2009, dated 2014).

Columns and labels:
[1] = tested on: NIH3T3/v-Ras; experiment: Colony survival assay; assay type: cell-based, mouse
Procedure: (§1) This was performed as previously reported (39). […] Colonies were stained with crystal violet for 4 h and counted under phase-contrast microscope.
(§2) Cultured single-cells were untreated or treated once with S3I-201.1066 and allowed to grow until large colonies were visible, which were stained and enumerated.

[2] = tested on: NIH3T3/v-Src, Panc-1 and MDA-MB-231 cells; experiment: Colony survival assay; assay type: cell-based, mouse, human; conditions: treated once
Procedure: as §1, §2

[3] = tested on: MDA-MB-231, Panc-1 and NIH3T3/v-Src cells; experiment: Wound healing assay for migration; assay type: cell-based, human, mouse
Text: (§3) Wounds were made using pipette tips in monolayer cultures of cells in six-well plates. […] The migration of cells was visualized at a 10× magnification using an Axiovert 200 Inverted Fluorescence Microscope (Zeiss, Göttingen Germany), with pictures taken using a mounted Canon Powershot A640 digital camera (Canon USA, Lake Success, N.Y.). Cells that migrated into the denuded area were quantified. Mice and in vivo tumor studies-Six-week-old female athymic nude mice were purchased from Harlan and maintained in the institutional animal facilities approved by the American Association for Accreditation of Laboratory Animal Care. Athymic nude mice were injected subcutaneously in the left flank area with 5×10^6 human breast cancer MDA-MB-231 cells in 100 μL of PBS. After 5 to 10 days, tumors of a diameter of 3 mm were established. […] Tumor volume was calculated according to the formula V=0.52×a^2×b, where a, smallest superficial diameter, b, largest superficial diameter.

[4] = tested on: pTyr705Stat3; experiment: Western blot of pTyr705Stat3 in NIH3T3/v-Src and Panc-1 cells; assay type: cell-based, mouse, human; conditions: 24 h
Procedure: (§4) Immunoprecipitation from whole-cell lysates and SDS/PAGE and Western blotting analysis were performed as previously described (33,38).

[5] = tested on: colocalization of Stat3 and EGFR and Stat3 nuclear translocation; experiment: Immunofluorescence/confocal microscopy in EGF-stimulated NIH3T3/hEGFR; assay type: cell-based, mouse; conditions: 50 μM pre-treatment 30 min, EGF 10 min
Procedure: Cells were fixed with ice-cold methanol for 15 min, washed 3 times in PBS, permeabilized with 0.2% Triton® X-100 for 10 min, and further washed 3-4 times with PBS. Specimens were then blocked in 1% BSA for 30 min and incubated with EGFR (Santa Cruz) or Stat3 (Cell Signaling Tech) antibody at 1:50 dilution at 4° C. overnight. Subsequently, cells were rinsed 4-5 times in PBS, incubated with Alexafluor 546 rat antibody for EGFR detection and Alexa fluor 488 rabbit antibody for Stat3 detection (Invitrogen) for 1 h at room temperature in the dark. Specimens were then washed 5 times with PBS, covered with cover slides with […] mounting medium containing DAPI, and examined immediately under a Leica TCS SP5 confocal microscope (Germany) at appropriate wavelengths. Images were captured and processed using the Leica TCS SP 5 software.
(§5) Cells were then subjected to immunostaining for EGFR (red) and Stat3 (green) and analyzed by confocal microscopy for EGF-induced colocalization of Stat3 and EGFR and for Stat3 nuclear translocation, as previously performed (17). In the resting NIH3T3/hEGFR fibroblasts, EGFR (red) is widely localized at the plasma membrane, while Stat3 (green) is localized at both the plasma membrane and in the cytoplasm, with a minimal colocalization with EGFR at the plasma membrane and no visible presence in the nucleus (stained blue for DAPI) (FIG. 4A upper panel).

[6] = tested on: human breast cancer (MDA-MB-231) xenografts; conditions: mouse, in vivo
Text: as §3

[7] = target: T1, Stat3 SH2 domain (Mus musculus, UniProt P42227); experiment: EMSA of Stat3 DNA-binding with added purified His-tagged Stat3 SH2 domain; assay type: biochemical, murine; conditions: 1-500 ng His-SH2; full recovery at 125-500 ng
T1 construct: Purified histidine-tagged Stat3 SH2 domain (His-SH2) was added at increasing concentrations (1-500 ng); SUMO (vector pET SUMO); made in house; host or cells: E. coli BL21(DE3)
Text: Coding regions for the murine Stat3 protein and Stat3 SH2 domain were amplified by PCR and cloned into vectors pET-44 Ek/LIC (Novagen) and pET SUMO (Invitrogen), respectively.

[8] = target: T2, Stat3 association with EGFR (Homo sapiens, UniProt P40763); experiment: Co-immunoprecipitation of EGFR immunecomplex from treated Panc-1 and MDA-MB-231 cells; assay type: cell-based
T2 construct: immunoprecipitated from whole-cell lysates prepared from treated and untreated cancer cells and blotted for Stat3; endogenous in cells; host or cells: Panc-1 and MDA-MB-231 cells
Procedure: as §4, §5

[9] = tested on: normal human pancreatic duct epithelial cells (HPDEC); experiment: CyQuant cell viability; assay type: cell-based
Text: (§6) Aberrant Stat3 promotes malignant cell proliferation, survival and malignant transformation (10, 20, 42). Given that S3I201.1066 disrupts Stat3 activation, we asked the question whether this agent is able to selectively decrease the viability and growth of malignant cells that harbor aberrant Stat3 activity.

[10] = tested on: mouse thymus epithelial stromal cells (TE71); experiment: CyQuant cell viability; assay type: cell-based
Text: as §6

T2 sequence (P40763 2-770 limits assumed): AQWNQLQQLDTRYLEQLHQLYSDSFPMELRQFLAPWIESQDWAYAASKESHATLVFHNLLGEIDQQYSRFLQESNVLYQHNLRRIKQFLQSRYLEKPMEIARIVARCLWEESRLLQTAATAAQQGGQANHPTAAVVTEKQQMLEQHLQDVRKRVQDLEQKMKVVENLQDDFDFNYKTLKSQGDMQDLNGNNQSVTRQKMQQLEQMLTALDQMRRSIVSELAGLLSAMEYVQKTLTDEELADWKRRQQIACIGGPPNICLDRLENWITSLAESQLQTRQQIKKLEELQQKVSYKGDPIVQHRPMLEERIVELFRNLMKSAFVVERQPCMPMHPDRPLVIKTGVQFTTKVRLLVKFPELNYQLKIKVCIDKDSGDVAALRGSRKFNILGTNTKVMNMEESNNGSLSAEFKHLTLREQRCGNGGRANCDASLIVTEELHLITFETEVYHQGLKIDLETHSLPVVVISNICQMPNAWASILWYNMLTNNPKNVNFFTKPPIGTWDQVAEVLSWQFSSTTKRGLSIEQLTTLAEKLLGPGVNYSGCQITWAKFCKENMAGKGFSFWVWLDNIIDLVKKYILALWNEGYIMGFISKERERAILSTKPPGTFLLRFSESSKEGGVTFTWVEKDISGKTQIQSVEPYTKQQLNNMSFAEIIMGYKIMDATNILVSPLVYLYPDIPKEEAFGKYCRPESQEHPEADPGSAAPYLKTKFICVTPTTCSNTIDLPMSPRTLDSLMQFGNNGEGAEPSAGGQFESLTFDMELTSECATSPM
T1 sequence (P42227 580-670 limits assumed): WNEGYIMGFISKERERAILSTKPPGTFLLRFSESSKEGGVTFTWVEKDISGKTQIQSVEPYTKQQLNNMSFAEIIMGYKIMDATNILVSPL

Compound: Cc1ccc(S(=O)(=O)N(C)CC(=O)N(Cc2ccc(C3CCCCC3)cc2)c2ccc(C(=O)O)c(O)c2)cc1 [S3I-201.1066]
- colony numbers, colony survival [1]: minimal effect
- number of colonies, colony survival [2]: dose-dependent suppression
- numbers of cells migrating into the denuded area ([3]; 30 µM): statistically lower numbers
- numbers of cells migrating into the denuded area ([3]; 12-24 h treatment): Significantly reduced numbers
- apoptosis of the treated cells ([3]; 12-24 h treatment, data not shown): no evidence of apoptosis
- numbers of cells migrating into the denuded area ([3]; 50 or 100 μM): strongly reduced numbers
- pTyr705Stat3 levels [4]: concentration-dependent reduction
- EGF-stimulated colocalization between EGFR and Stat3 and Stat3 nuclear localization [5]: strongly blocked
- toxicity in tumor-bearing mice [6]: no obvious sign of toxicity
- inhibition of Stat3 DNA-binding activity in presence of increasing purified His-SH2 domain [7]: progressively eliminated
- Shc or Grb 2 levels associated with EGFR in the complex [8]: without affecting
- level of Stat3 associated with EGFR in the immunecomplex [8]: significantly diminished
- levels of activated and total Erk1/2 in whole-cell lysates [8]: unaffected
- derived IC60 values, viability [9]: > 200 μMm
- derived IC60 values, viability [10]: > 200 μMm
